Source: patent publication US12507703B2, “Methods, devices and compositions for preserving human milk” (The Trustees of Princeton University, priority 2023, dated 2025)
Several values for one entry are separate records, joined by “and”; a condition that tells them apart may be missing. Equal entries are not always repeated.
Note: test concentration or dose not given here.

The compounds below were run on lipase (assay: Lipase/lipolysis assay (EnzChek Lipase Substrate, quenched BODIPY-fatty acid conjugate) on stored human milk). Conditions: not given.
In the case of `O=C(O)[C@H]1O[C@@H](Oc2cc(O)c3c(=O)cc(-c4ccc(O)cc4)oc3c2)[C@H](O)[C@@H](O)[C@@H]1O` [Apigenin-7-glucuronide], the “Lipase (RFU)” value is reported as 991.8672 RFU.
With `O=C(O)c1cc(O)c2cccc(O)c2n1` [Xanthurenic acid] the “Lipase (RFU)” value was 1023.37 RFU.
With `COc1c(-c2ccccc2)oc2cc(O)cc(O)c2c1=O` [Compound 3-O-Methylgalangin] the “Lipase (RFU)” value was 819.4334 RFU.
For `CC/C=C\C/C=C\C/C=C\C/C=C\C/C=C\CCCCCC(=O)O` [Docosapentaenoic acid (22n-3)], the “Lipase (RFU)” value was 931.501 RFU.
With `OC[C@@H](O)[C@@H](O)CO` [meso-Erythritol] the “Lipase (RFU)” value was 838.849 RFU.
With `CCCCC/C=C\C/C=C\CCCCCCCC(=O)OCC(COC(=O)CCCCCCC/C=C\C/C=C\CCCCC)OC(=O)CCCCCCC/C=C\C/C=C\CCCCC` [Trilinolein] the “Lipase (RFU)” value was 834.4039 RFU.
In the case of `C=C(C)[C@H]1C=C[C@@](C)(O)CC1` [cis-Isolimonenol], the “Lipase (RFU)” value is reported as 930.1567 RFU.
`NC(Cc1ccccc1O)C(=O)O` (racemic) [DL-O-Tyrosine] was tested, and the “Lipase (RFU)” value was 919.2122 RFU.
`C=CCc1ccc(O)c(-c2cc(CC=C)ccc2O)c1` [Magnolol] was tested, and the “Lipase (RFU)” value was 941.9616 RFU.
For Anacardic Acid, the “Lipase (RFU)” value was 908.2535 RFU.
With `Nc1ccn([C@@H]2O[C@H](COP(=O)([O-])OP(=O)([O-])OP(=O)(O)O)[C@@H](O)[C@H]2O)c(=O)n1.[Na+].[Na+]` [Cytidine-5′-triphosphate (disodium)] the “Lipase (RFU)” value was 1141.901 RFU.
For `O=C(O)[C@@H]1C[C@@H](O)CN1` [trans-4-Hydroxy L-Proline], the “Lipase (RFU)” value was 608.0856 RFU.
`O=c1ccc2c(O)c3ccoc3cc2o1` [Bergaptol] was tested, and the “Lipase (RFU)” value was 1060.003 RFU.
In the case of `CC1=CCC(=O)O1` [α-Angelica lactone], the “Lipase (RFU)” value is reported as 1137.248 RFU.
With `CC(C)(O)[C@@H]1Cc2cc3ccc(=O)oc3cc2O1` [S-(+)-Marmesin] the “Lipase (RFU)” value was 984.7966 RFU.
With Theaflavin 3,3′-digallate the “Lipase (RFU)” value was 933.3624 RFU.
For Maltotriose, the “Lipase (RFU)” value was 917.8057 RFU and 1104.158 RFU.
For `CC(CC(=O)CC(C)(O)C1CC(=O)C2(C)C3=C(C(=O)CC12C)C1(C)CCC(=O)C(C)(C)C1CC3O)C(=O)O` (centres unmarked) [Ganoderic acid N], the “Lipase (RFU)” value was 866.924 RFU.
In the case of `CC1O[C@@H](OC[C@H]2O[C@@H](Oc3c(-c4ccc(O)cc4)oc4cc(O)cc(O)c4c3=O)C(O[C@@H]3O[C@H](C)[C@H](O)C(O)C3O)C(O)[C@H]2O)C(O)[C@@H](O)[C@H]1O` (some centres unmarked) [Mauritianin], the “Lipase (RFU)” value is reported as 860.4015 RFU.
In the case of `O=C1C[C@@H](c2ccc(O)c(O)c2)Oc2cc(O[C@@H]3O[C@H](CO)[C@@H](O)[C@H](O)[C@H]3O)cc(O)c21` [Eriodictyol-7-O-glucoside], the “Lipase (RFU)” value is reported as 982.3042 RFU.
With `COC1=CC(=O)OC(/C=C/c2ccccc2)C1` (single isomer, unassigned; (+)) [(+)-Kavain] the “Lipase (RFU)” value was 895.974 RFU.
`CCCCCCCCCCCCCCC[C@@H](O)[C@@H](N)CO` [D-Erythro-dihydrosphingosine] was tested, and the “Lipase (RFU)” value was 1051.007 RFU.
For `COc1cc(/C=C/C(=O)NCCc2c[nH]c3ccc(O)cc23)ccc1O` [N-Feruloylserotonin], the “Lipase (RFU)” value was 1060.876 RFU.
`Nc1ncnc2c1ncn2[C@@H]1O[C@H](COP(=O)(O)OP(=O)(O)OP(=O)([O-])[O-])[C@@H](O)[C@H]1O.O.O.O.[Na+].[Na+]` [ATP (disodium trihydrate)] was tested, and the “Lipase (RFU)” value was 947.4309 RFU.
`CCCCCCCC/C=C\CCCCCCCC(=O)O[C@H](CC(=O)[O-])C[N+](C)(C)C` [Oleoylcarnitine] was tested, and the “Lipase (RFU)” value was 870.8673 RFU.
`C=C1CC[C@H]2O[C@]2(C)CC[C@@H]2[C@@H]1CC2(C)C` [Caryophyllene oxide] was tested, and the “Lipase (RFU)” value was 891.7497 RFU and 923.1149 RFU.
In the case of `COc1cc(CCN)ccc1O.Cl` [3-Methoxytyramine (hydrochloride)], the “Lipase (RFU)” value is reported as 963.841 RFU.
In the case of `C[C@]12CC[C@@H]3c4ccc(O)c(O)c4CC[C@H]3[C@@H]1CCC2=O` [Compound 4-Hydroxyestrone], the “Lipase (RFU)” value is reported as 1068.255 RFU.
`CCCCCCCCCCCCC/C=C/[C@@H](O)[C@@H](N)CO` [D-erythro-Sphingosine] was tested, and the “Lipase (RFU)” value was 823.3956 RFU.
With `OC[C@@H](O)C(O)[C@H](O)CO` [D-Arabitol] the “Lipase (RFU)” value was 977.3738 RFU and 986.8626 RFU.
With `CC(C)=CCc1cc2c(cc1O)oc(=O)c1c3ccc(O)cc3oc21` [Psoralidin] the “Lipase (RFU)” value was 1084.87 RFU.
With `CCCCCCCCCC(=O)OCC(COC(=O)CCCCCCCCC)OC(=O)CCCCCCCCC` [Trisdecanoin] the “Lipase (RFU)” value was 969.1379 RFU.
`CC(C)CC(=O)O[C@H](CC(=O)[O-])C[N+](C)(C)C` [Isovalerylcarnitine] was tested, and the “Lipase (RFU)” value was 737.2804 RFU.
With Adenine (hemisulfate) the “Lipase (RFU)” value was 842.2125 RFU.
With `C[C@@H]1CC[C@@]2(OC1)O[C@H]1C[C@H]3[C@@H]4CC[C@@H]5C[C@@H](O)CC[C@]5(C)[C@H]4CC[C@]3(C)[C@H]1[C@@H]2C` [Smilagenin] the “Lipase (RFU)” value was 790.1194 RFU.
In the case of `COc1cc(-c2oc3cc(O[C@@H]4O[C@H](CO)[C@@H](O)[C@H](O)[C@H]4O)cc(O)c3c(=O)c2O)ccc1O` [Brassicin], the “Lipase (RFU)” value is reported as 1089.017 RFU.
With `COc1ccc(-c2cc(=O)c3c(OC)cc(OC)c(OC)c3o2)cc1` [6-Demethoxytangeretin] the “Lipase (RFU)” value was 818.2248 RFU.
`Cl.O=C(O)Cc1cnc[nH]1` [Imidazoleacetic acid (hydrochloride)] was tested, and the “Lipase (RFU)” value was 807.4109 RFU.
In the case of `CC1CCC(C(C)C)C(O)C1` (racemic) [DL-Menthol], the “Lipase (RFU)” value is reported as 1275.242 RFU.
`CN1[C@@H]2CC[C@H]1C[C@@H](OC(=O)C(CO)c1ccccc1)C2` (some centres unmarked) [Atropine] was tested, and the “Lipase (RFU)” value was 1104.016 RFU.
With `CCCCCCCCCC=O` [Decyl aldehyde] the “Lipase (RFU)” value was 807.9785 RFU and 682.2968 RFU.
For `COc1cc2oc3cc(O)c(OC)c(CC=C(C)C)c3c(=O)c2c(O)c1CC=C(C)C` [beta-Mangostin], the “Lipase (RFU)” value was 828.6091 RFU.
With `C=C1CCC2CC1C2(C)C` (stereo not drawn) [β-Pinene] the “Lipase (RFU)” value was 851.1223 RFU.
For `CC(=O)C=Cc1ccccc1` [Benzylideneacetone], the “Lipase (RFU)” value was 1109.291 RFU.
For `CC(C)[C@]12CC(=O)[C@H](C)[C@H]1C2` [α-Thujone], the “Lipase (RFU)” value was 659.4321 RFU.
`COc1cc(O)c(C(=O)/C=C/c2ccccc2)c(O)c1` [Pinostrobin chalcone] was tested, and the “Lipase (RFU)” value was 969.4657 RFU.
In the case of `CC1(C)CC[C@]2(C(=O)O)CC[C@]3(C)C(=CC[C@@H]4[C@@]5(C)C[C@H](O)[C@H](O)[C@@](C)(C(=O)O)[C@@H]5CC[C@]43C)[C@@H]2C1` [Medicagenic acid], the “Lipase (RFU)” value is reported as 975.8957 RFU.
In the case of `CC(C)=CCC/C(C)=C/CC/C(C)=C/CC[C@]1(C)CCc2cc(O)c(C)c(C)c2O1` [γ-Tocotrienol], the “Lipase (RFU)” value is reported as 703.9438 RFU and 665.753 RFU.
With `CCCCCC(O)/C=C/C=O` (centres unmarked) [Compound 4-Hydroxynonenal, 4-Hydroxynonenal] the “Lipase (RFU)” value was 827.4103 RFU.
With Xanthan gum the “Lipase (RFU)” value was 873.106 RFU.
For `O=C(CO)[C@@H](O)[C@H](O)[C@@H](O)CO` [(3S,4R,5S)-1,3,4,5,6-Pentahydroxyhexan-2-one], the “Lipase (RFU)” value was 1079.288 RFU and 1003.563 RFU.
In the case of `O=c1cc(-c2ccc(O)cc2)oc2cc(O)c([C@@H]3O[C@H](CO)[C@@H](O)[C@H](O)[C@H]3O[C@@H]3OC[C@H](O)[C@H](O)[C@H]3O)c(O)c12` [Isovitexin 2″-O-arabinoside], the “Lipase (RFU)” value is reported as 1033.269 RFU.
With `CCCCCCCCCCCCCC(=O)O[C@H](CC(=O)[O-])C[N+](C)(C)C` [Tetradecanoylcarnitine] the “Lipase (RFU)” value was 951.8251 RFU.
With `C/C=C/c1cc(OC)c(OC)cc1OC` [alpha-Asarone] the “Lipase (RFU)” value was 956.156 RFU.
For `C=C(C)[C@@H]1CCC2=CCC[C@@H](C)[C@]2(C)C1` [Valencene], the “Lipase (RFU)” value was 980.1668 RFU.
For Isobergapten, the “Lipase (RFU)” value was 1247.074 RFU.
In the case of `NC(CCCC(=O)O)C(=O)O` (centres unmarked) [Aminoadipic acid], the “Lipase (RFU)” value is reported as 1118.253 RFU.
With Disodium succinate the “Lipase (RFU)” value was 1168.659 RFU and 874.998 RFU.
In the case of `COc1ccc(-c2cc(=O)c3c(O)c(OC)c(OC)cc3o2)cc1OC` [5-Desmethylsinensetin], the “Lipase (RFU)” value is reported as 571020.7 RFU.
In the case of `O=c1[nH]c(=O)c2[nH]c(=O)[nH]c2[nH]1.[Na]` [Uric acid (sodium)], the “Lipase (RFU)” value is reported as 855.3809 RFU.
`C[C@@H]1CC[C@@]2(NC1)O[C@H]1C[C@H]3[C@@H]4CC=C5C[C@@H](O)CC[C@]5(C)[C@H]4CC[C@]3(C)[C@H]1[C@@H]2C` [Solasodine] was tested, and the “Lipase (RFU)” value was 1073.206 RFU.
In the case of `O=C(O)[C@@H](O)[C@H](O)C(=O)O` [D-Tartaric Acid], the “Lipase (RFU)” value is reported as 685.8128 RFU.
Schaftoside was tested, and the “Lipase (RFU)” value was 900.214 RFU.
In the case of `N[C@@H](CCC(=O)O)C(=O)O` [L-Glutamic Acid], the “Lipase (RFU)” value is reported as 1101.527 RFU and 821.1812 RFU.
For `OC[C@H]1O[C@@](CO)(O[C@H]2O[C@H](CO)[C@@H](O)[C@H](O)[C@H]2O)[C@@H](O[C@H]2O[C@H](CO)[C@@H](O)[C@H](O)[C@H]2O)[C@@H]1O` [D-Melezitose], the “Lipase (RFU)” value was 1021.506 RFU.
For `C[C@H]1CC[C@]2(NC1)O[C@H]1C[C@H]3[C@@H]4CC[C@H]5C[C@@H](O)CC[C@]5(C)[C@H]4CC[C@]3(C)[C@H]1[C@@H]2C` [Tomatidine], the “Lipase (RFU)” value was 1057.071 RFU.
With `CCCCCCCCCCCCCCCCCC(=O)O[C@H](CC(=O)[O-])C[N+](C)(C)C` [Stearoylcarnitine] the “Lipase (RFU)” value was 900.7392 RFU.

Same assay, conditions: (monohydrate)
With `C[C@H](O)[C@H](O)[C@@H](O)[C@@H](O)C=O.O` [Rhamnose (monohydrate)] the “Lipase (RFU)” value was 978.8722 RFU and 922.0222 RFU.
